Literature values as cited in patent US20190231691A1, “Biopharma Application Of Micell Technology” (Micell Technologies, Inc., priority 2015, published 2019).

Settings: in vivo

bioavailability: less than 14%
Structure (SMILES): CO[C@H]1C[C@@H]2CC[C@@H](C)[C@@](O)(O2)C(=O)C(=O)N2CCCC[C@H]2C(=O)O[C@H]([C@H](C)C[C@@H]2CC[C@@H](O)[C@H](OC)C2)CC(=O)[C@H](C)/C=C(\C)[C@@H](O)[C@@H](OC)C(=O)[C@H](C)C[C@H](C)/C=C/C=C/C=C/1C [rapamycin]
